# Assay results taken from patent publication US9833497B2, “Human originated EGF domain proteins and use of the same” (CHENGDU SOURCEBIO LIMITED-LIABILITY COMPANY, priority 2013, dated 2017).
# Experiments:
# Assay type in all cases: cell-based
# [1] = test system: E. coli BL21; experiment: MIC against Gram-negative bacteria: E. coli BL21; conditions: 96-well plate, 5×10^5 CFU/mL, 37° C., 10 h
# Summary of the method: (§1)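 Bacteria grown in LB at 37° C to McFarland 0.5, resuspended and seeded at 5×10^5 CFU/mL in 96-well plates. Purified human EGF-domain proteins two-fold serially diluted, triplicate wells; cultured at 37° C, shaking 175 rpm. MIC = lowest protein concentration with no growth.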
# [2] = test system: Moraxella catarrhalis; experiment: MIC against Gram-negative bacteria: Moraxella catarrhalis; conditions: 96-well plate, 5×10^5 CFU/mL, 37° C., 10 h
# Summary of the method: as §1
# [3] = test system: Enterobacter cloacae; experiment: MIC against Gram-negative bacteria: Enterobacter cloacae; conditions: 96-well plate, 5×10^5 CFU/mL, 37° C., 10 h
# Summary of the method: as §1
# [4] = test system: Klebsiella pneumonia; experiment: MIC against Gram-negative bacteria: Klebsiella pneumonia; conditions: 96-well plate, 5×10^5 CFU/mL, 37° C., 10 h
# Summary of the method: as §1
# [5] = test system: Proteus vulgaris; experiment: MIC against Gram-negative bacteria: Proteus vulgaris; conditions: 96-well plate, 5×10^5 CFU/mL, 37° C., 10 h
# Summary of the method: as §1
# [6] = test system: Citrobacter diversus; experiment: MIC against Gram-negative bacteria: Citrobacter diversus; conditions: 96-well plate, 5×10^5 CFU/mL, 37° C., 10 h
# Summary of the method: as §1
# [7] = test system: Aeromonas hydrophila; experiment: MIC against Gram-negative bacteria: Aeromonas hydrophila; conditions: 96-well plate, 5×10^5 CFU/mL, 37° C., 10 h
# Summary of the method: as §1
# [8] = test system: Serratia marcescens; experiment: MIC against Gram-negative bacteria: Serratia marcescens; conditions: 96-well plate, 5×10^5 CFU/mL, 37° C., 10 h
# Summary of the method: as §1
# [9] = test system: E. coli DH5α; experiment: Antibacterial activity: MIC and growth curve against E. coli DH5α in 96-well plate; conditions: minimal inhibitory concentration against E. coli DH5α; 96-well plate, 5×10^5 CFU/mL, 37° C., judged after 8 h
# Summary of the method: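 Log-phase bacteria (OD600 ~0.5) resuspended in LB at 5×10^5 CFU/mL, exposed to recombinant protein at 50, 25, 12.5 μg/mL final in triplicate, 37 °C shaking at 175 rpm. OD600 read every 30 min; MIC is lowest concentration showing no growth.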
# [10] = test system: Pseudomonas aeruginosa; experiment: MIC against Gram-negative bacteria: Pseudomonas aeruginosa; conditions: 96-well plate, 5×10^5 CFU/mL, 37° C., 10 h
# Summary of the method: as §1
# [11] = test system: Proteus mirabilis; experiment: MIC against Gram-negative bacteria: Proteus mirabilis; conditions: 96-well plate, 5×10^5 CFU/mL, 37° C., 10 h
# Summary of the method: as §1
substance,measurement,setting,value
PRT577 (CACHPSRARGPTCNEFTGQCHCRAGFGGRTCSECQELHWGDPGLQCHA; listed as Homo sapiens),MIC against E. coli BL21,[1],25 µg/mL
same,MIC against M. catarrhalis,[2],12.5 µg/mL
same,MIC against E. cloacae,[3],12.5 µg/mL
same,MIC against K. pneumonia,[4],25 µg/mL
same,MIC against P. vulgaris,[5],12.5 µg/mL
same,MIC against C. diversus,[6],50 µg/mL
same,MIC against A. hydrophila,[7],25 µg/mL
same,MIC against S. marcescens,[8],50 µg/mL
same,MIC,[9],12.5 µg/mL
same,MIC against P. aeruginosa,[10],50 µg/mL
same,MIC against P. mirabilis,[11],50 µg/mL
PRT580 (CDCDPMGSQDGGRCDSHDDPALGLVSGQCRCKEHVVGTRCQQCRDGFFGLSISDRLGCRR; listed as Homo sapiens),MIC against E. coli BL21,[1],25 µg/mL
same,MIC against M. catarrhalis,[2],50 µg/mL
same,MIC against E. cloacae,[3],12.5 µg/mL
same,MIC against K. pneumonia,[4],25 µg/mL
same,MIC against P. vulgaris,[5],50 µg/mL
same,MIC against C. diversus,[6],12.5 µg/mL
same,MIC against A. hydrophila,[7],25 µg/mL
same,MIC against S. marcescens,[8],12.5 µg/mL
same,MIC,[9],12.5 µg/mL
same,MIC against P. aeruginosa,[10],12.5 µg/mL
same,MIC against P. mirabilis,[11],12.5 µg/mL
PRT584 (CQCSHEGALSSLCEKTSGQCLCRTGAFGLRCDRCQRGQWGFPSCRP; listed as Homo sapiens),MIC against E. coli BL21,[1],50 µg/mL
same,MIC against M. catarrhalis,[2],50 µg/mL
same,MIC against E. cloacae,[3],25 µg/mL
same,MIC against K. pneumonia,[4],50 µg/mL
same,MIC against P. vulgaris,[5],50 µg/mL
same,MIC against C. diversus,[6],25 µg/mL
same,MIC against A. hydrophila,[7],50 µg/mL
same,MIC against S. marcescens,[8],25 µg/mL
same,MIC,[9],50 µg/mL
same,MIC against P. aeruginosa,[10],25 µg/mL
same,MIC against P. mirabilis,[11],25 µg/mL
PRT586 (CPCPEGPGSQRHFATSCHQDEYSQQIVCHCRAGYTGLRCEACAPGHFGDPSRPGGRCQL; listed as Homo sapiens),MIC against E. coli BL21,[1],50 µg/mL
same,MIC against M. catarrhalis,[2],25 µg/mL
same,MIC against E. cloacae,[3],12.5 µg/mL
same,MIC against K. pneumonia,[4],50 µg/mL
same,MIC against P. vulgaris,[5],25 µg/mL
same,MIC against C. diversus,[6],12.5 µg/mL
same,MIC against A. hydrophila,[7],50 µg/mL
same,MIC against S. marcescens,[8],12.5 µg/mL
same,MIC,[9],12.5 µg/mL
same,MIC against P. aeruginosa,[10],12.5 µg/mL
same,MIC against P. mirabilis,[11],50 µg/mL
PRT590 (CDCNILGSRRDMPCDEESGRCLCLPNVVGPKCDQCAPYHWKLASGQGCEP; listed as Homo sapiens),MIC against E. coli BL21,[1],25 µg/mL
same,MIC against M. catarrhalis,[2],25 µg/mL
same,MIC against E. cloacae,[3],50 µg/mL
same,MIC against K. pneumonia,[4],25 µg/mL
same,MIC against P. vulgaris,[5],25 µg/mL
same,MIC against C. diversus,[6],12.5 µg/mL
same,MIC against A. hydrophila,[7],25 µg/mL
same,MIC against S. marcescens,[8],12.5 µg/mL
same,MIC,[9],50 µg/mL
same,MIC against P. aeruginosa,[10],12.5 µg/mL
same,MIC against P. mirabilis,[11],50 µg/mL
PRT591 (CACDPHNSLSPQCNQFTGQCPCREGFGGLMCSAAAIRQCPDRTYGDVATGCRA; listed as Homo sapiens),MIC against E. coli BL21,[1],50 µg/mL
same,MIC against M. catarrhalis,[2],50 µg/mL
same,MIC against E. cloacae,[3],25 µg/mL
same,MIC against K. pneumonia,[4],12.5 µg/mL
same,MIC against P. vulgaris,[5],50 µg/mL
same,MIC against C. diversus,[6],12.5 µg/mL
same,MIC against A. hydrophila,[7],50 µg/mL
same,MIC against S. marcescens,[8],12.5 µg/mL
same,MIC,[9],25 µg/mL
same,MIC against P. aeruginosa,[10],25 µg/mL
same,MIC against P. mirabilis,[11],12.5 µg/mL
PRT592 (CDCDFRGTEGPGCDKASGRCLCRPGLTGPRCDQCQRGYCNRYPVCVA; listed as Homo sapiens),MIC against E. coli BL21,[1],12.5 µg/mL
same,MIC against M. catarrhalis,[2],100 µg/mL
same,MIC against E. cloacae,[3],50 µg/mL
same,MIC against K. pneumonia,[4],12.5 µg/mL
same,MIC against P. vulgaris,[5],25 µg/mL
same,MIC against C. diversus,[6],50 µg/mL
same,MIC against A. hydrophila,[7],12.5 µg/mL
same,MIC against S. marcescens,[8],12.5 µg/mL
same,MIC,[9],50 µg/mL
same,MIC against P. aeruginosa,[10],50 µg/mL
same,MIC against P. mirabilis,[11],50 µg/mL
PRT594 (CACNNNIDVTDPESCSRVTGECLRCLHNTQGANCQLCKPGHYGSALNQTCRR; listed as Homo sapiens),MIC E. coli BL21,[1],25 µg/mL
same,MIC M. catarrhalis,[2],12.5 µg/mL
same,MIC E. cloacae,[3],50 µg/mL
same,MIC K. pneumonia,[4],12.5 µg/mL
same,MIC P. vulgaris,[5],12.5 µg/mL
same,MIC C. diversus,[6],50 µg/mL
same,MIC A. hydrophila,[7],12.5 µg/mL
same,MIC S. marcescens,[8],50 µg/mL
same,MIC,[9],12.5 µg/mL
same,MIC P. aeruginosa,[10],50 µg/mL
same,MIC P. mirabilis,[11],50 µg/mL
PRT595 (CSCHASGVSPMECPPGGGACLCDPVTGACPCLPNVTGLACDRCADGYWNLVPGRGCQS; listed as Homo sapiens),MIC E. coli BL21,[1],50 µg/mL
same,MIC M. catarrhalis,[2],50 µg/mL
same,MIC E. cloacae,[3],12.5 µg/mL
same,MIC K. pneumonia,[4],50 µg/mL
same,MIC P. vulgaris,[5],50 µg/mL
same,MIC C. diversus,[6],12.5 µg/mL
same,MIC A. hydrophila,[7],50 µg/mL
same,MIC S. marcescens,[8],25 µg/mL
same,MIC,[9],12.5 µg/mL
same,MIC P. aeruginosa,[10],12.5 µg/mL
same,MIC P. mirabilis,[11],12.5 µg/mL
PRT596 (CDCDPRTSQSSHCDQLTGQCPCKLGYGGKRCSECQENYYGDPPGRCIP; listed as Homo sapiens),MIC E. coli BL21,[1],25 µg/mL
same,MIC M. catarrhalis,[2],25 µg/mL
same,MIC E. cloacae,[3],12.5 µg/mL
same,MIC K. pneumonia,[4],25 µg/mL
same,MIC P. vulgaris,[5],25 µg/mL
same,MIC C. diversus,[6],50 µg/mL
same,MIC A. hydrophila,[7],25 µg/mL
same,MIC S. marcescens,[8],50 µg/mL
same,MIC,[9],12.5 µg/mL
same,MIC P. aeruginosa,[10],50 µg/mL
same,MIC P. mirabilis,[11],12.5 µg/mL
PRT597 (CDCNRAGTQKPICDPDTGMCRCREGVSGQRCDRCARGHSQEFPTCLQ; listed as Homo sapiens),MIC E. coli BL21,[1],12.5 µg/mL
same,MIC M. catarrhalis,[2],12.5 µg/mL
same,MIC E. cloacae,[3],25 µg/mL
same,MIC K. pneumonia,[4],12.5 µg/mL
same,MIC P. vulgaris,[5],25 µg/mL
same,MIC C. diversus,[6],25 µg/mL
same,MIC A. hydrophila,[7],50 µg/mL
same,MIC S. marcescens,[8],12.5 µg/mL
same,MIC,[9],25 µg/mL
same,MIC P. aeruginosa,[10],50 µg/mL
same,MIC P. mirabilis,[11],50 µg/mL
PRT599 (CECDPDGTISGGICVSHSDPALGSVAGQCLCKENVEGAKCDQCKPNHYGLSATDPLGCQP; listed as Homo sapiens),MIC E. coli BL21,[1],25 µg/mL
same,MIC M. catarrhalis,[2],12.5 µg/mL
same,MIC E. cloacae,[3],50 µg/mL
same,MIC K. pneumonia,[4],12.5 µg/mL
same,MIC P. vulgaris,[5],12.5 µg/mL
same,MIC C. diversus,[6],50 µg/mL
same,MIC A. hydrophila,[7],12.5 µg/mL
same,MIC S. marcescens,[8],50 µg/mL
same,MIC,[9],12.5 µg/mL
same,MIC P. aeruginosa,[10],50 µg/mL
same,MIC P. mirabilis,[11],50 µg/mL
PRT600 (CDCNPLGSLPFLTCDVDTGQCLCLSYVTGAHCEECTVGYWGLGNHLHGCSP; listed as Homo sapiens),MIC E. coli BL21,[1],12.5 µg/mL
same,MIC M. catarrhalis,[2],50 µg/mL
same,MIC E. cloacae,[3],25 µg/mL
same,MIC K. pneumonia,[4],50 µg/mL
same,MIC P. vulgaris,[5],12.5 µg/mL
same,MIC C. diversus,[6],25 µg/mL
same,MIC A. hydrophila,[7],12.5 µg/mL
same,MIC S. marcescens,[8],25 µg/mL
same,MIC,[9],25 µg/mL
same,MIC P. aeruginosa,[10],25 µg/mL
same,MIC P. mirabilis,[11],25 µg/mL
